From patent publication US10407408B2, “Imide derivatives and use thereof as medicine” (MITSUBISHI TANABE PHARMA CORPORATION, priority 2015, dated 2019)

What was measured:
[1] = system: proMMP-9 production by human TNFα stimulated THP-1 cell; assay: Action on proMMP-9 production by human TNFα stimulated THP-1 cell (ELISA of culture supernatant); type: cell-based; conditions: THP-1 cells, human TNFα 10 ng/mL, 24 hr; IC50 from 3 concentrations (5, 50, 500 or 1, 10, 100 nmol/L); read-out: proMMP-9 suppression rate IC50
Description: Experimental Example 1: Action of Human TNFα Stimulated THP-1 Cell on proMMP-9 Production
(§1) THP-1 cell (human monocytic leukemia cell line) was adjusted to 1×10^7 cells/mL in a culture medium (10% fetal bovine serum/RPMI1640 medium), and dispensed to a 96 well multiplate. This was equilibrated under the conditions of 37° C./5% CO2, and a culture medium containing human TNFα (final concentration 10 ng/mL) and a test compound was dissolved therein. After incubation under the conditions of 37° C./5% CO2 for 24 hr, the culture medium was centrifuged and the culture supernatant was collected, which was subjected to the following measurement.
Quantification of proMMP-9 in Culture Supernatant
The proMMP-9 concentration of the collected culture supernatant was quantified using a commercially available measurement reagent (manufactured by GE Healthcare, MMP-9, Human, Biotrak ELISA System).
Calculation of proMMP-9 Suppression Rate
The proMMP-9 suppression rate of the test compound was calculated from the following formula: % suppression=100−((Test−Min)/(Max−Min)×100) wherein Max is proMMP-9 concentration of culture supernatant induced by stimulation with human TNFα, without addition of a test compound (added with solvent alone) Min is proMMP-9 concentration of culture supernatant without addition of a test compound (added with solvent alone) and without stimulation with human TNFα, and Test is proMMP-9 concentration of culture supernatant induced by stimulation with human TNFα when a test compound is added.
Furthermore, the concentration of the test compound necessary for suppressing proMMP-9 production by human TNFα stimulated THP-1 cell by 50% (IC50 value) was calculated from 3 points of proMMP-9 suppression rate at test compound concentrations of 5, 50 and 500 nmol/L or 1, 10 and 100 nmol/L.
MMP-9 is produced as a precursor proMMP-9 by the stimulated cells, extracellularly activated and expresses the physiological activity as MMP-9. That is, evaluation of the suppression of proMMP-9 produced by the cell means evaluation of the suppression of production of MMP-9. The same applies to MMP-2, and evaluation of the suppression of proMMP-2 produced by the cell means evaluation of the suppression of production of MMP-2.

[2] = system: proMMP-2 production by THP-1 cell; assay: Action on hemostatic type proMMP-2 production by THP-1 cell (ELISA of culture supernatant); type: cell-based; conditions: Homo sapiens; THP-1 cells, no stimulation, 24 hr; IC50 from 0.1, 1 and 10 μmol/L; read-out: IC50 value (μmol/L), proMMP-2 production suppression
Description: Experimental Example 2: Action of THP-1 Cell on Hemostatic Type proMMP-2 Production
as §1, with “dissolving” for “containing human TNFα (final concentration 10 ng/mL) and”, “added thereto.” for “dissolved therein.”
Quantification of proMMP-2 in Culture Supernatant
The proMMP-2 concentration of the collected culture supernatant was quantified using a commercially available measurement reagent (manufactured by GE Healthcare, MMP-2, Human, Biotrak ELISA System).
Calculation of proMMP-2 Suppression Rate
The proMMP-2 suppression rate of the test compound was calculated from the following formula: % suppress=100−((Test/Cont)×100). wherein Cont is proMMP-2 concentration of culture supernatant without addition of a test compound (added with solvent alone) and Test is proMMP-2 concentration of culture supernatant with addition of a test compound. […]

[3] = system: rat monoiodoacetic acid-induced osteoarthritis model; assay: Suppressive action on joints injury marker COMP in rat monoiodoacetic acid-induced osteoarthritis model; type: in vivo; conditions: for Joints injury marker COMP suppression rate (%): oral
Description: Experimental Example 3 Suppressive Action on Articular Joints Injury Marker Free of Rat Monoiodoacetic Acid-Induced Osteoarthritis Model
Monoiodoacetic acid solution (0.3 mg/25 μL) was injected into the right hindpaw knee joint cavity of anesthetized rats (LEW, male, 7-week-old). […] On day 5, cold phosphate buffer (20 μL) was injected into the right hindpaw knee joint cavity of the euthanized rats, and the joint cavity washing was collected. The joints injury marker COMP (Cartilage Oligomeric Matrix Protein) concentration of the joint cavity washing was quantified using a commercially available measurement reagent (Animal COMP ELISA Kit manufactured by Anamer Medical).
Calculation of Joints Injury Marker COMP Suppression Rate
The COMP suppression rate of the test compound was calculated from the following formula: % suppression=100−((Test−Min)/(Max−Min)×100) wherein Max is a COMP concentration of the joint cavity washing of the pathology group administered with a monoiodoacetic acid solution (oral administration of solvent alone), Min is a COMP concentration of the joint cavity washing of the non-treatment normal group (oral administration of solvent alone), and Test is a COMP concentration of the joint cavity washing of the test compound administration group.

[4] = system: mouse dextran sulfuric acid induced colitis model; assay: Suppressive action on enteritis score (Disease Activity Index, DAI) of mouse dextran sulfuric acid induced colitis model; type: in vivo; conditions: mouse (C57BL/6J), oral, 30 mg/kg twice per day until day 10; AUC of DAI on days 3, 5, 7 and 10; pathology group 11.75 ± 1.18
Description: Experimental Example 4 Suppressive Action on Enteritis Score (Disease Activity Index, DAI) of Mouse Dextran Sulfuric Acid Induced Colitis Model
Mice (C57BL/6J, male, 6-week-old) were allowed to freely ingest 2.0% (w/v) dextran sulfuric acid solution for 5 days, the solution was exchanged with water, and pathology was evaluated on day 10. The test compound was orally administered twice per day at a dose of 30 mg/kg for 5 days of dextran sulfuric acid solution ingestion and thereafter until day 10. On days 3, 5, 7 and 10 from the start of the test, the body weight decrease, stool consistency, and the state of occult blood or gross bleeding were respectively scored in 0-4 points, and the mean of the total score was taken as Disease Activity Index (DAI), an index of enteritis pathology. The diagnostic criteria of the stool consistency score and occult blood or gross bleeding score were as follows.
The evaluation results are shown by the area under the curve (AUC) calculated using DAI on days 3, 5, 7 and 10.

Cc1cnc(N2CCN(C(=O)c3ccc([C@@]4(C)NC(=O)NC4=O)cc3)CC2)c(C)c1 [Example 1, (R)-5-{4-[4-(3,5-dimethylpyridin-2-yl)piperazine-1-carbonyl]phenyl}-5-methylimidazolidine-2,4-dione]
IC50 [1]: 27 nM
IC50 [2]: > 10 µmol/L
Joints injury marker COMP suppression rate (%) ([3]; rat (LEW), 1 mg/kg once per day, joint cavity washing on day 5): 80.9%
superiority in joints injury marker COMP suppression rate compared with Example 450 described in patent document 3 ([3]; rat monoiodoacetic acid model, both at 1 mg/kg once per day): at least 5 fold
DAI (AUC) [4]: 9.78 ± 0.80

Cc1cnc(N2CCN(C(=O)c3ccc(N4C(=O)NC(=O)C4C)cc3)CC2)c(C)c1 (stereo not drawn) [Example 450, reference compound]
Joints injury marker COMP suppression rate (%) ([3]; comparison compound of patent document 3 (WO 2011/136292), rat, 1 mg/kg once per day): 14.4%

Cc1cnc(N2CCN(C(=O)c3ccc([C@@]4(C(C)C)NC(=O)NC4=O)cc3)CC2)c(C)c1 [Example 8, (R)-5-{4-[4-(3,5-dimethylpyridin-2-yl)piperazine-1-carbonyl]phenyl}-5-isopropylimidazolidine-2,4-dione]
Joints injury marker COMP suppression rate (%) ([3]; rat (LEW), 0.1 mg/kg once per day, joint cavity washing on day 5): 84.3%
superiority in joints injury marker COMP suppression rate compared with Example 571 described in patent document 3 ([3]; rat monoiodoacetic acid model, 0.1 mg/kg versus 3 mg/kg once per day): at least 30 fold

Cc1cnc(N2CCN(C(=O)c3ccc(N4C(=O)NC(=O)C4C(C)C)cc3)CC2)c(C)c1 (stereo not drawn) [Example 571, reference compound]
Joints injury marker COMP suppression rate (%) ([3]; comparison compound of patent document 3 (WO 2011/136292), rat, 3 mg/kg once per day): 55.3%

Cc1cc(C2(C)NC(=O)NC2=O)ccc1C(=O)N1CCN(c2nc(C)c(C)cc2C)CC1 (stereo not drawn) [Example 126, 5-methyl-5-{3-methyl-4-[4-(3,5,6-trimethylpyridin-2-yl)piperazine-1-carbonyl]phenyl}imidazolidine-2,4-dione]
IC50 [1]: 8 nM

CC[C@]1(c2ccc(C(=O)N3CCC(c4cn(-c5ccc(C)cc5)cn4)CC3)cc2)NC(=O)NC1=O [Example 175, (R)-5-ethyl-5-{4-[4-(1-p-tolyl-1H-imidazol-4-yl)piperidine-1-carbonyl]phenyl}imidazolidine-2,4-dione]
IC50 [1]: 88 nM

CCC1(c2ccc(C(=O)N3CCC(c4cn(-c5ccc(C)cc5)nn4)CC3)cc2F)NC(=O)NC1=O (stereo not drawn) [Example 178, 5-ethyl-5-{2-fluoro-4-[4-(1-p-tolyl-1H-[1,2,3]triazol-4-yl)piperidine-1-carbonyl]phenyl}imidazolidine-2,4-dione]
IC50 [1]: 34 nM

CC[C@]1(c2ccc(C(=O)N3CCC(c4cnn(-c5ccc(C)cc5)c4)CC3)cc2)NC(=O)NC1=O [Example 27, (R)-5-ethyl-5-{4-[4-(1-p-tolyl-1H-pyrazol-4-yl)piperidine-1-carbonyl]phenyl}imidazolidine-2,4-dione]
IC50 [1]: 16 nM

Cc1ccc2c(C3CCN(C(=O)c4ccc([C@@]5(C)NC(=O)NC5=O)cc4)CC3)c[nH]c2c1 [Example 345, (R)-5-methyl-5-{4-[4-(6-methyl-1H-indol-3-yl)piperidine-1-carbonyl]phenyl}imidazolidine-2,4-dione]
IC50 [1]: 15 nM

COCC1CN(C(=O)c2ccc([C@@]3(C(C)C)NC(=O)NC3=O)cc2)CCN1c1ncc(C)cc1C (stereo partly drawn) [Example 66, (R)-5-{4-[4-(3,5-dimethylpyridin-2-yl)-3-methoxymethylpiperazine-1-carbonyl]phenyl}-5-isopropylimidazolidine-2,4-dione]
IC50 [1]: < 5 nM

Cc1cnc(N2CCN(C(=O)c3ccc(C4(C(C)C)C(=O)NC(=O)N4C)cc3)CC2)c(C)c1 (stereo not drawn) [Example 182, 5-{4-[4-(3,5-dimethylpyridin-2-yl)piperazine-1-carbonyl]phenyl}-5-isopropyl-1-methylimidazolidine-2,4-dione]
IC50 [1]: 67 nM

CC(C)[C@]1(c2ccc(C(=O)N3CCC(c4nc5cc(C(F)(F)F)ccc5s4)CC3)cc2)NC(=O)NC1=O [Example 262, (R)-5-isopropyl-5-{4-[4-(5-trifluoromethylbenzothiazol-2-yl)piperidine-1-carbonyl]phenyl}imidazolidine-2,4-dione]
IC50 [1]: 13 nM

CC(C)[C@]1(c2ccc(C(=O)N3CCN(c4nc5ccccc5n4C)CC3)cc2)NC(=O)NC1=O [Example 243, (R)-5-isopropyl-5-{4-[4-(l-methyl-1H-benzimidazol-2-yl)piperazine-1-carbonyl]phenyl}imidazolidine-2,4-dione]
IC50 [1]: 27 nM

CC[C@]1(c2ccc(C(=O)N3CCN(c4ncc(C)cc4C)CC3)cc2)NC(=O)NC1=O [Example 124, (R)-5-{4-[4-(3,5-dimethylpyridin-2-yl)piperazine-1-carbonyl]phenyl}-5-ethylimidazolidine-2,4-dione]
IC50 [1]: 1 nM

COC(=O)[C@@H]1CN(c2ncc(C)cc2C)CCN1C(=O)c1ccc([C@@]2(C(C)C)NC(=O)NC2=O)cc1 [Example 64, (S)-4-(3,5-dimethylpyridin-2-yl)-1-[4-((R)-4-isopropyl-2,5-dioxoimidazolidin-4-yl)benzoyl]piperazine-2-carboxylic acid methyl ester]
IC50 [1]: 64 nM

Cc1nnc(N2CCN(C(=O)c3ccc([C@@]4(C(C)C)NC(=O)NC4=O)cc3)CC2)c(C)c1C [Example 141, (R)-5-isopropyl-5-{4-[4-(4,5,6-trimethylpyridazin-3-yl)piperazine-1-carbonyl]phenyl}imidazolidine-2,4-dione]
IC50 [1]: 70 nM
